Data taken from US8916555B2, “3,5-diaminopyrazole kinase inhibitors” (Axikin Pharmaceuticals, Inc., priority 2012, dated 2014).

What was measured:
[1] = molecular target: T1, kinase domain protein of RC kinase (Homo sapiens, UniProt Q56UN5); assay: Enzymatic assay for kinase inhibitory activity (Crebtide substrate, LANCE readout), kinase domain protein; type: biochemical; details: test compound 1 μM, ATP 1 μM, Crebtide 50 nM
T1 sequence (Q56UN5 1061-1324 limits assumed): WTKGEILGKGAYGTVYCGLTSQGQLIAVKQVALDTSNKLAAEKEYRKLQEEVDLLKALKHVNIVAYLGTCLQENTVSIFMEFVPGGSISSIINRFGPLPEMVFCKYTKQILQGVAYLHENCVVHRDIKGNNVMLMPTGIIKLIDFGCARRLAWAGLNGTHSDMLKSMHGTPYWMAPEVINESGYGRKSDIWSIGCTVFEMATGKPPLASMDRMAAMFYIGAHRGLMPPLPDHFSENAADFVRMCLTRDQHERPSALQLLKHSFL
Description: Solutions of a test compound, Crebtide (a substrate), a kinase, and ATP were prepared using 1×MAPK Buffer (50 mM HEPES, 1 mM EGTA, […], 10 mM MgCl2, 2 mM DTT, and 0.01% Tween 20).
To each well, the test compound (1 μL) was first added (in duplicate) to reach a final concentration of 1 μM or 1×IC50 of the compound. The kinase (5 μL) was then added to each well to reach a final concentration of […] for the kinase domain or […] for the full-length domain. Each plate included a positive and negative controls in duplicate wells. Crebtide (2.5 μL) was then added to each well in duplicate to reach a final concentration of 50 nM. If the full-length kinase was used, the plates were incubated for 45 min at room temperature before proceeding further. ATP (2.5 μL) was added to each well to reach a final concentration of 1 μM for the kinase domain and 3 μM for the full-length.
After the addition of ATP, the plates were incubated for 45 min at room temperature. During the incubation, an EDTA solution (40 mM) and anti-Crebtide ([…]) were prepared. Additionally, a detection buffer stock solution was diluted ten fold before use.
After the incubation, the anti-Crebtide (5 μL) and EDTA (5 μL) were added to each well to reach their final concentrations of […] and 10 mM, respectively. The plates were allowed to develop at room temperature for 45 min. The plates were then read at 665 nm and 615 nm using Perkin Elmer Lance machine.
The biological results of inhibition of the kinase domain protein of RC kinase are summarized in Tables 2 and 3, wherein A represents at least 50% inhibition of the RC kinase activity at 1 μM; B represents no greater than 50% but at least 20% inhibition of the RC kinase activity at 1 μM; C represents no greater than 20% but at least 5% inhibition of the RC kinase activity at 1 μM; and D represents no greater than 5% inhibition of the RC kinase activity at 1 μM.

Compound	melting point [°C]	inhibition at 1 µM [1] [%]	Activity (inhibition of the RC kinase activity at 1 μM) [1]
COc1ccc(CNc2[nH]nc(Nc3cccnc3)c2C(N)=O)cc1 [Compound D151, 5-((4-methoxybenzyl)amino)-3-(pyridin-3-ylamino)-1H-pyrazole-4-carboxamide]	218 to 222	20 to 50	–
N#Cc1c(Nc2cccnc2)n[nH]c1NCc1ccc(O)cc1 [Compound C33, 5-((4-hydroxybenzyl)amino)-3-(pyridin-3-ylamino)-1H-pyrazole-4-carbonitrile]	216 to 222	20 to 50	–
NC(=O)c1c(Nc2cccc(Cl)c2)n[nH]c1NCc1ccc(Oc2ncccn2)cc1 [Compound D32, 3-((3-chlorophenyl)amino)-5-((4-(pyrimidin-2-yloxy)benzyl)amino)-1H-pyrazole-4-carboxamide]	193 to 199	–	B (no greater than 50% but at least 20% inhibition of the RC kinase activity at 1 μM)
NC(=O)c1c(Nc2ccc(N3CCN(C(=O)N4CCCCC4)CC3)cc2)n[nH]c1NCc1ccc(O)cc1 [Compound D110, 5-((4-hydroxybenzyl)amino)-3-((4-(4-(piperidine-1-carbonyl)piperazin-1-yl)phenyl)amino)-1H-pyrazole-4-carboxamide]	236 to 240	≥ 50	–
N#Cc1c(Nc2cccc(Cl)c2)n[nH]c1NCc1ccc(O)cc1 [Compound C31, 3-((3-chlorophenyl)amino)-5-((4-hydroxybenzyl)amino)-1H-pyrazole-4-carbonitrile]	205 to 208	≤ 5	–
COc1ccc(C(C)C)cc1CNc1[nH]nc(Nc2cccc(Cl)c2)c1C(N)=O [Compound D94]	184 to 194	20 to 50	–
COc1ccc(CNc2[nH]nc(Nc3cccc(Cl)c3)c2C(N)=O)c(C)c1 [Compound D73]	195 to 199	20 to 50	–
Cn1nc(CSc2ccccc2)c(CNc2[nH]nc(Nc3cccc(Cl)c3)c2C#N)c1Cl [Compound C3]	100 to 104	5 to 20	–
N#Cc1c(Nc2cccc(Cl)c2)n[nH]c1NCc1ccc(Oc2ccc(C(F)(F)F)cn2)cc1 [Compound C32, 3-((3-chlorophenyl)amino)-5-((4-((5-(trifluoromethyl)pyridin-2-yl)oxy)benzyl)amino)-1H-pyrazole-4-carbonitrile]	184 to 194	–	C (no greater than 20% but at least 5% inhibition of the RC kinase activity at 1 μM)
NC(=O)c1c(Nc2cccc(Cl)c2)n[nH]c1NCc1ccc[nH]1 [Compound D59]	193 to 198	5 to 20	–
CCOc1ccc2ccccc2c1CNc1[nH]nc(Nc2cccnc2)c1C(N)=O [Compound D43, 5-(((2-ethoxynaphthalen-1-yl)methyl)amino)-3-(pyridin-3-ylamino)-1H-pyrazole-4-carboxamide]	231 to 236	20 to 50	–
CC1CCN(C2CCN(c3ccc(Nc4n[nH]c(NCc5ccc(O)cc5)c4C(N)=O)cn3)CC2)CC1 [Compound D119]	203 to 206	≥ 50	–
N#Cc1c(Nc2cccc(Cl)c2)n[nH]c1NCc1ccc(Cl)cc1Cl [Compound C19]	171 to 174	5 to 20	–
NC(=O)c1c(Nc2cccc(Cl)c2)n[nH]c1NCc1ccc(Oc2ccc(C(F)(F)F)cn2)cc1 [Compound D33, 3-((3-chlorophenyl)amino)-5-((4-((5-(trifluoromethyl)pyridin-2-yl)oxy)benzyl)amino)-1H-pyrazole-4-carboxamide]	205 to 211	5 to 20	–

More lines, main results first:

melting point [°C]	inhibition at 1 µM [1] [%]	Compound	Activity (inhibition of the RC kinase activity at 1 μM) [1]
225 to 230	≥ 50	NC(=O)c1ccc(Nc2n[nH]c(NCc3ccc(O)cc3)c2C(N)=O)cc1 [Compound D63, 3-((4-carbamoylphenyl)amino)-5-((4-hydroxybenzyl)amino)-1H-pyrazole-4-carboxamide]	–
250 to 260	≥ 50	NC(=O)c1c(Nc2ccc3[nH]ncc3c2)n[nH]c1NCc1ccc(O)cc1 [Compound D76, 3-((1H-indazol-5-yl)amino)-5-((4-hydroxybenzyl)amino)-1H-pyrazole-4-carboxamide]	–
169 to 174	≥ 50	Cc1ccc(Nc2n[nH]c(NCc3ccc(O)cc3)c2C(N)=O)cc1 [Compound D61, 5-((4-hydroxybenzyl)amino)-3-(p-tolylamino)-1H-pyrazole-4-carboxamide]	–
189 to 191	≤ 5	NC(=O)c1c(NCc2c(F)cccc2F)n[nH]c1NCc1ccc(O)cc1 [Compound D114]	–
206 to 210	≥ 50	NC(=O)c1c(Nc2ccc(-c3ccccc3)cc2)n[nH]c1NCc1ccc(O)cc1 [Compound D161, 3-([1,1′-biphenyl]-4-ylamino)-5-((4-hydroxybenzyl)amino)-1H-pyrazole-4-carboxamide]	–
189 to 194	≥ 50	N#Cc1cccc(Nc2n[nH]c(NCc3ccc(O)cc3)c2C(N)=O)c1 [Compound D66, 3-((3-cyanophenyl)amino)-5-((4-hydroxybenzyl)amino)-1H-pyrazole-4-carboxamide]	–
208 to 211	≥ 50	COc1ccccc1C(=O)Nc1ccc(Nc2n[nH]c(NCc3ccc(O)cc3)c2C(N)=O)cc1 [Compound D143, 5-((4-hydroxybenzyl)amino)-3-((4-(2-methoxybenzamido)phenyl)amino)-1H-pyrazole-4-carboxamide]	–
258 to 266	≥ 50	NC(=O)c1c(Nc2ccc(-c3cnco3)cc2)n[nH]c1NCc1ccc(O)cc1 [Compound D111]	–
216 to 220	≥ 50	NC(=O)c1c(Nc2ccc(-c3cc(CO)c4ccccc4n3)cc2)n[nH]c1NCc1ccc(O)cc1 [Compound D125]	–
208 to 211	≥ 50	NC(=O)c1c(Nc2ccc(N3CCOCC3)c(F)c2)n[nH]c1NCc1ccc(O)cc1 [Compound D100]	–
230 to 236	≥ 50	CN1CCN(c2ccc(Nc3n[nH]c(NCc4ccc(O)cc4)c3C(N)=O)cc2Cl)CC1 [Compound D116]	–
167 to 172	≥ 50	CC(=O)c1ccc(Nc2n[nH]c(NCc3ccc(O)cc3)c2C(N)=O)cc1 [Compound D62, 3-((4-acetylphenyl)amino)-5-((4-hydroxybenzyl)amino)-1H-pyrazole-4-carboxamide]	–
162 to 168	≥ 50	NC(=O)c1c(Nc2ccc(N3CCOCC3)c(Cl)c2)n[nH]c1NCc1ccc(O)cc1 [Compound D75, 3-((3-chloro-4-morpholinophenyl)amino)-5-((4-hydroxybenzyl)amino)-1H-pyrazole-4-carboxamide]	–
219 to 227	≥ 50	NC(=O)c1c(Nc2ccc(N3CCN(c4ncccn4)CC3)cc2)n[nH]c1NCc1ccc(O)cc1 [Compound D124]	–
200 to 204	20 to 50	CC(C)c1ccc(Nc2n[nH]c(NCc3ccc(O)cc3)c2C(N)=O)cc1 [Compound D137, 5-((4-hydroxybenzyl)amino)-3-((4-isopropylphenyl)amino)-1H-pyrazole-4-carboxamide]	–
217 to 221	≥ 50	NC(=O)c1c(Nc2ccc(-c3ccccn3)cc2)n[nH]c1NCc1ccc(O)cc1 [Compound D109]	–
218 to 222	≥ 50	CC(C)(C)c1ccc(Nc2n[nH]c(NCc3ccc(O)cc3)c2C(N)=O)cc1 [Compound D164, 3-((4-(tert-butyl)phenyl)amino)-5-((4-hydroxybenzyl)amino)-1H-pyrazole-4-carboxamide]	–
194 to 197	≥ 50	NC(=O)c1c(Nc2ccc(N3CCOC(=O)C3)cc2)n[nH]c1NCc1ccc(O)cc1 [Compound D99, 5-((4-hydroxybenzyl)amino)-3-((4-(2-oxomorpholino)phenyl)amino)-1H-pyrazole-4-carboxamide]	–
178 to 183	≥ 50	NC(=O)c1c(Nc2ccc(F)c(Cl)c2)n[nH]c1NCc1ccc(O)cc1 [Compound D159, 3-((3-chloro-4-fluorophenyl)amino)-5-((4-hydroxybenzyl)amino)-1H-pyrazole-4-carboxamide]	–
